For data set [1], the system named is P-gp (MDR1). Nature of the data set: MDCK-MDR1 permeability assay. It is filed as in vitro ADME. The conditions noted are these: dog; for Papp A→B at 60 min, 5 μM / Papp B→A at 60 min, 5 μM: MDCK-MDR1, pH 7.4, @ 5 μM; for Papp A→B at 60 min, 5 μM: apical to basolateral, without P-gp inhibitor; for Papp B→A at 60 min, 5 μM: basolateral to apical; for efflux ratio at 60 min, 5 μM: MDCK-MDR1, pH 7.4, MDCK-MDR1, 5 μM, read-out: Papp(B-A)/Papp(A-B) (efflux ratio). The method, then:
Permeability measurements were conducted according to the Cyprotex protocol using the MDCK-MDR1 cell line obtained from the NIH (Rockville, Md., USA). Cells between passage numbers 6-30 were seeded onto a Multiscreen Plate™ (Millipore) at a cell density of 3.4×10^5 cells/cm^2 and cultured for three days before permeability studies were conducted. The cells in this assay form a cohesive sheet of a single cell layer filing the surface area of the culture dish, also known as a confluent monolayer, and on day four the test compound was added to the apical side of the membrane and the transport of the compound across the monolayer was monitored over a time period of 60 min.
Test compounds were dissolved in DMSO at a concentration of 10 mM. The dosing solutions were prepared by diluting test compound with assay buffer (Hanks Balanced Salt Solution), pH 7.4, at a final concentration of 5 μM. For assessment of apical to basolateral (“A-B”) permeability, buffer was removed from the apical compartment and replaced with test compound dosing solution with or without the permeability glycoprotein (“PgP”, “P-gP”, “Pgp” or “P-gp”) inhibitor elacridar (2 μM). For assessment of basolateral to apical (“B-A”) permeability, buffer was removed from the companion plate and replaced with test compound dosing solution. Incubations were carried out in duplicate at 37° C. in an atmosphere of 5% CO2 with a relative humidity of 95%. Each assay included the reference markers propranolol (high permeability) and prazosin (PgP substrate). After incubation for 60 minutes, apical and basolateral samples were diluted and test compounds quantified by LC/MS/MS using an 8-point calibration in the range 0.0039 to 3 μM with appropriate dilution of the samples (receiver dilution factor=1; donor and C0 dilution factor=10). The permeability coefficient (Papp) for each compound was calculated from the following equation: Papp=(dQ/dt)/(C0×S), where dQ/dt is the rate of permeation of the drug across the cells, C0 is the donor compartment concentration at time zero, and S is the area of the cell monolayer.
The second and third columns in Table 7 show the values of Papp(A-B) for the apical-to-basolateral compound transport without (second column) and with a P-gp inhibitor (third column, noted as P^eapp(A-B)) that was elacridar. Papp(A-B) gives an indication of permeation extent across the cells in this assay, which is envisaged to model the transcellular transport across Pgp-expressing cells, such as Pgp-expressing gastrointestinal tract cells. P^eapp(A-B) values (Papp(A-B) in the presence of the P-gp inhibitor) given in column 3 are determined to confirm the role of P-gp in the compound efflux. […] Test compound efflux ratios are given in the fifth column of Table 7 as Papp(B-A)/Papp(A-B) by using the corresponding permeability coefficient values from the fourth and second columns in the same table.

Data set [2] in a line: Solubility assays in simulated gastric and simulated intestinal fluids. The conditions noted are these: thermodynamic from solid, 2-5 days. It is filed as physicochemical. As to the method: Test compounds were dissolved in DMSO at a concentration of 10 mM. The test compounds were dispensed (20 μL) into Nunc 1-mL-96-Deep-Well-PP plates, and the DMSO was evaporated via nitrogen blow down from a TurboVap 96 for 6 hours or until a dry residue was produced. Then, 400 μL of solubility media was added to the well containing the dry solid. […] After the incubation period, the samples were filtered through an AcroPrep 1-mL-96-Filter plate into a new 2-mL-96-Deep-Well-PP plate, and the supernatants were quantified by UV-HPLC using a 3-point calibration ranging from 0.004-0.55 mM. The solubility for each compound was calculated from the following equation: […] Solubilities are reported as long as the compound under study was sufficiently stable to complete the corresponding solubility determination.

Data set [3] concerns IFNα pSTAT4 (JAK1/TYK2). Description: IFNα pSTAT4 (JAK1/TYK2) cellular assay (AlphaLISA, PBMCs). In kind it is cell-based. The conditions noted are these: PBMC, IFNα at 4 ng/mL. The method, then:
The AlphaLISA assay (based on Alpha Technology from PerkinElmer) was performed by first plating freshly thawed PBMCs (Biological Specialty Corporation) in 384-well plates at 100,000 cells per 6 μL per well in DMEM (Dulbecco's Modified Eagle Medium) containing 10% FBS (fetal bovine serum) and 1,000 I.U./mL penicillin and 1,000 μg/mL streptomycin. The cells were then treated with 2 μL/well of compounds diluted in DMSO at half-log titrated concentrations, with a highest test concentration of 10 μM and 0.5% final DMSO concentration, for thirty minutes at 37° C. Next, the cells were stimulated with 2 μL/well of IFNα (PBL Assay Science Cat. No. 11101-2) at 4 ng/mL for thirty minutes at 37° C. The cellular reactions were terminated by the addition of 2 μL/well of lysis buffer (PerkinElmer Cat. No. ALSU-PST4-A10K) followed by an incubation of five minutes at room temperature. 4 μL/well of acceptor mix (PerkinElmer Cat. No. ALSU-PST4-A10K) was added to the cells and incubated in the dark for one hour at room temperature. Then, 4 μL/well of donor mix (PerkinElmer Cat. No. ALSU-PST4-A10K) was added to the cells and incubated in the dark overnight at room temperature. Finally, the plates were read on a PerkinElmer EnVision for detection of the time-resolved fluorescence signal. The percentage of IFNα-dependent pSTAT4 inhibition was determined at the compound test concentrations; and for each compound, a dose curve was generated and the IC50 was calculated. Compound IC50 was calculated by nonlinear regression, sigmoidal dose response analysis of the half-log dilution titration curve of the compound concentration vs. Alpha signal. The term “Alpha” is defined in the immediately preceding cellular assay description.
A general note: Bead proximity is the source of the signal in Alpha formats.

For data set [4], the system named is IL-2 pSTAT5 (JAK1/JAK3). Description: IL-2 pSTAT5 (JAK1/JAK3) cellular assay (AlphaLISA, PBMCs). It is filed as cell-based. The conditions noted are these: PBMC, IL-2 at 5 ng/mL. The method, then:
The AlphaLISA assay (based on Alpha Technology from PerkinElmer) was performed by first plating freshly thawed PBMCs (Biological Specialty Corporation) in 384-well plates at 30,000 cells per 4 μL per well in HBSS (Hanks' Balanced Salt Solution) containing 0.1% IgG (immunoglobulin G)-free, protease-free BSA (bovine serum albumin) (Jackson ImmunoResearch Cat. No. 001-000-161). The cells were then treated with 2 μL/well of compounds diluted in DMSO at half-log titrated concentrations, with a highest test concentration of 10 μM and 0.5% final DMSO concentration, for thirty minutes at 37° C. […] Compound IC50 was calculated by nonlinear regression, sigmoidal dose response analysis of the half-log dilution titration curve of the compound concentration vs. Alpha signal. The acronym “Alpha” stands for amplified luminescent proximity homogeneous assay; the Alpha signal is a luminescent/fluorescent signal.

Where [5] appears, read: simulated gastric fluid, ambient temperature, read-out: SGF solubility.
The mark [6] stands for this setting: fassif, simulated intestinal fluid, fasted state pH 6.5, ambient temperature, read-out: SIF solubility.

Read-outs that look alike come from different tables or passages of the source.

These results are taken from US10981911B2, “Imidazopyrrolopyridine as inhibitors of the JAK family of kinases” (Janssen Pharmaceutica NV, priority 2016, dated 2021).

What is called Papp A→B is how fast a substance crosses the layer from the apical side. A high value points to fast passage. As a reminder, the Papp B→A is the apparent permeability from the basolateral to the apical side of a cell layer. In general, solubility refers to how much of the substance goes into solution per volume. The IC50 is the concentration needed to halve the response being measured. Low readings indicate inhibition by little substance, high ones a need for much substance.

On to `CC(C)(O)CNC(=O)Cc1nc2cnc3[nH]ccc3c2n1[C@H]1CC[C@H](CC#N)CC1` [Ex. 1, 2-(1-((1r,4r)-4-(Cyanomethyl)cyclohexyl)-1,6-dihydroimidazo[4,5-d]pyrrolo[2,3-b]pyridin-2-yl)-N-(2-hydroxy-2-methylpropyl)acetamide], for which, in data set [1], the Papp A→B at 60 min, 5 μM was less than 0.5 ×10⁻⁶ cm/s; the Papp B→A at 60 min, 5 μM was 0.9 ×10⁻⁶ cm/s; the efflux ratio at 60 min, 5 μM is greater than 1.9. For the same molecule, the solubility in data set [2] (setting [5]) was greater than 400 µM.

In data set [3], `N#CCC1CCC(n2c(-c3c[nH]cn3)nc3cnc4[nH]ccc4c32)CC1` (stereo not drawn) [Ex. 2, 2-((1r,4r)-4-(2-(1H-Imidazol-4-yl)imidazo[4,5-d]pyrrolo[2,3-b]pyridin-1(6H)-yl)cyclohexyl)acetonitrile] displayed an IC50 of 20.8 nM. In addition, in data set [1], the Papp A→B at 60 min, 5 μM worked out at 1.1 ×10⁻⁶ cm/s; the Papp B→A at 60 min, 5 μM turned out to be 4.8 ×10⁻⁶ cm/s; the efflux ratio at 60 min, 5 μM was found to be 4.4. For the same molecule, in data set [2] (setting [6]), the solubility is greater than 400 µM. The solubility in data set [2] (setting [5]) is greater than 400 µM. Also, the IC50 in data set [4] was 9 nM.

Molecule `N#CC[C@H]1CC[C@H](n2c(CC(=O)NCC3CC3)nc3cnc4[nH]ccc4c32)CC1` [Ex. 3, 2-(1-((1r,4r)-4-(Cyanomethyl)cyclohexyl)-1,6-dihydroimidazo[4,5-d]pyrrolo[2,3-b]pyridin-2-yl)-N-(cyclopropylmethyl)acetamide] returned an IC50 in data set [3] of 10.1 nM. Moreover, in data set [1], the Papp A→B at 60 min, 5 μM is less than 0.4 ×10⁻⁶ cm/s; the Papp B→A at 60 min, 5 μM worked out at 17 ×10⁻⁶ cm/s; the efflux ratio at 60 min, 5 μM is greater than 41. In addition, the solubility in data set [2] (setting [6]) is greater than 400 µM. In addition, in data set [2] (setting [5]), the solubility was greater than 400 µM. Also, the IC50 in data set [4] worked out at 6.4 nM.

`N#CCCNC(=O)Cc1nc2cnc3[nH]ccc3c2n1[C@H]1CC[C@H](CC#N)CC1` [Ex. 4, N-(2-Cyanoethyl)-2-(1-((1r,4r)-4-(cyanomethyl)cyclohexyl)-1,6-dihydroimidazo[4,5-d]pyrrolo[2,3-b]pyridin-2-yl)acetamide] gave an IC50 in data set [3] of 64.7 nM. In data set [1], the Papp A→B at 60 min, 5 μM came to 0.1 ×10⁻⁶ cm/s; the Papp B→A at 60 min, 5 μM was determined as 1.3 ×10⁻⁶ cm/s; the efflux ratio at 60 min, 5 μM is 8.7. For the same molecule, the solubility in data set [2] (setting [6]) is greater than 400 µM. For the same molecule, the solubility in data set [2] (setting [5]) was greater than 400 µM. This molecule yielded an IC50 in data set [4] of 35.5 nM.

In data set [3], `N#CC[C@H]1CC[C@H](n2c(CC(=O)NC3CCOCC3)nc3cnc4[nH]ccc4c32)CC1` [Ex. 5, 2-(1-((1r,4r)-4-(Cyanomethyl)cyclohexyl)-1,6-dihydroimidazo[4,5-d]pyrrolo[2,3-b]pyridin-2-yl)-N-(tetrahydro-2H-pyran-4-yl)acetamide] showed an IC50 of 38.1 nM. In addition, in data set [1], the Papp A→B at 60 min, 5 μM is less than 0.4 ×10⁻⁶ cm/s; the Papp B→A at 60 min, 5 μM was found to be 1.8 ×10⁻⁶ cm/s; the efflux ratio at 60 min, 5 μM is greater than 4.8. Besides, the solubility in data set [2] (setting [5]) is greater than 400 µM. In data set [4], this molecule registered an IC50 of 6.4 nM.

In the case of `N#CC[C@H]1CC[C@H](n2c(CC(=O)NCC3CCOCC3)nc3cnc4[nH]ccc4c32)CC1` [Ex. 10, 2-(1-((1r,4r)-4-(Cyanomethyl)cyclohexyl)-1,6-dihydroimidazo[4,5-d]pyrrolo[2,3-b]pyridin-2-yl)-N-((tetrahydro-2H-pyran-4-yl)methyl)acetamide], the IC50 in data set [3] was determined as 39.4 nM. In data set [1], the Papp A→B at 60 min, 5 μM was less than 0.3 ×10⁻⁶ cm/s; the Papp B→A at 60 min, 5 μM was 2.5 ×10⁻⁶ cm/s; the efflux ratio at 60 min, 5 μM is greater than 8.4. In data set [2] (setting [6]), the solubility is greater than 400 µM. In addition, the solubility in data set [2] (setting [5]) is greater than 400 µM. This molecule also yielded an IC50 in data set [4] of 6.7 nM.

As to `CC(C)(C#N)CNC(=O)Cc1nc2cnc3[nH]ccc3c2n1[C@H]1CC[C@H](CC#N)CC1` [Ex. 22, N-(2-Cyano-2-methylpropyl)-2-(1-((1r,4r)-4-(cyanomethyl)cyclohexyl)-1,6-dihydroimidazo[4,5-d]pyrrolo[2,3-b]pyridin-2-yl)acetamide], the IC50 in data set [3] was found to be 38.5 nM. For the same molecule, in data set [1], the Papp A→B at 60 min, 5 μM is less than 0.4 ×10⁻⁶ cm/s; the Papp B→A at 60 min, 5 μM stood at 3.6 ×10⁻⁶ cm/s; the efflux ratio at 60 min, 5 μM is greater than 9. Moreover, the solubility in data set [2] (setting [5]) was greater than 400 µM. The molecule also had an IC50 in data set [4] of 9.7 nM.

Take `N#CC[C@H]1CC[C@H](n2c(CC(=O)NCC3(O)CCC3)nc3cnc4[nH]ccc4c32)CC1` [Ex. 34, 2-(1-((1r,4r)-4-(Cyanomethyl)cyclohexyl)-1,6-dihydroimidazo[4,5-d]pyrrolo[2,3-b]pyridin-2-yl)-N-((1-hydroxycyclobutyl)methyl)acetamide]: the IC50 in data set [3] was 42.8 nM. Moreover, in data set [1], the Papp A→B at 60 min, 5 μM came out at 0.1 ×10⁻⁶ cm/s; the Papp B→A at 60 min, 5 μM was 1.7 ×10⁻⁶ cm/s; the efflux ratio at 60 min, 5 μM stood at 11.5. In addition, the solubility in data set [2] (setting [6]) is greater than 400 µM. Moreover, in data set [2] (setting [5]), the solubility is greater than 400 µM. In addition, the midpoint of inhibition in data set [4], the IC50, lay at 20.6 nM.

For `N#CCC12CCC(NC(=O)Cc3nc4cnc5[nH]ccc5c4n3[C@H]3CC[C@H](CC#N)CC3)(CC1)C2` [Ex. 55, N-(4-(Cyanomethyl)bicyclo[2.2.1]heptan-1-yl)-2-(1-((1r,4r)-4-(cyanomethyl)cyclohexyl)-1,6-dihydroimidazo[4,5-d]pyrrolo[2,3-b]pyridin-2-yl)acetamide], the IC50 in data set [3] is 40.4 nM. In data set [1], the Papp A→B at 60 min, 5 μM is less than 0.4 ×10⁻⁶ cm/s; the apparent permeability from basolateral to apical (Papp B→A) at 60 min, 5 μM amounted to 7.1 ×10⁻⁶ cm/s; the efflux ratio at 60 min, 5 μM is greater than 16.9. Also, in data set [2] (setting [5]), the solubility was greater than 400 µM. The molecule further yielded an IC50 in data set [4] of 16.8 nM.
